From a melting point compilation (Tetko et al.; mined from patent text by program, amines drawn as free bases though some values may be those of a salt)

| SMILES | melting point |
| --- | --- |
| COc1cn(-c2ccc(-n3cccn3)cc2F)nc(-c2ccnn2-c2ccccc2F)c1=O | 202 to 206 °C |
| CCS(=O)(=O)N1CCN(c2ccc(NC(=O)c3cc(=O)c4cc(OC)cc(N5CCN(C)CC5)c4o3)cc2)CC1 | 232 to 234 °C |
| CC(=O)OCCOCn1cc(C)c(=O)[nH]c1=O | 105 to 107 °C |
| Nc1ccc(NCC(F)(F)F)c([N+](=O)[O-])c1 | 104 to 106 °C |
| CSc1nn2c(-n3ccnc3)cc(C)nc2c1S(=O)(=O)c1ccccc1 | > 230 °C |
| O=C1NC(=S)NC(=O)C1=Cc1cc(Br)cs1 | 230 °C |
| COc1ccc(Cl)cc1C(=O)NCCC1CCN(S(=O)(=O)NC(=S)NC(C)C)CC1 | 145 to 147 °C |
| N#Cc1c(NC(=O)C2CCCCC2)sc(-c2ccccc2)c1C#N | 208 to 212 °C |
| O=Cc1ccc(-c2ccccc2)c(Cl)c1 | 70 to 72 °C |
| Cn1nc(-c2ccccc2Cl)nc1-c1ccc(Oc2ccc(C(F)(F)F)cn2)cc1Cl | 104 to 108 °C |
| CCCSc1nc(N)c2ncn(C3C=CCCC3)c2n1 (stereo unspecified) | 108 to 113 °C |
| O=C(NCc1ccccn1)Nc1cc(N2CC(c3ccccc3)OC2=O)ccn1 (stereo unspecified) | 190 to 191 °C |
| COc1ccc(COC(=O)c2cc([N+](=O)[O-])c3ccccc3c2O)cc1 | 163 to 164 °C |
| Oc1c2c(nn1-c1ccc(C(F)(F)F)cn1)CCc1ccccc1-2 | 158 to 159 °C |
| CSc1cc(C)nc(O)n1 | 165 °C |
| COc1ccc2[nH]c(=O)[nH]c2c1 | 249 to 251 °C |
| CC(C)(C)OC(=O)C1C=CCn2c(=O)n(CCCl)c(=O)n21 (stereo unspecified) | 87 to 88 °C |
| Cc1[nH]cnc1/C=C/C(=O)c1coc2ccccc12 | 192 to 193 °C |
| COc1cccc(OC)c1-c1ccc(C[C@H](NC(=O)c2c(Cl)cc(-c3cnccn3)cc2Cl)C(=O)O)cc1 | 146 °C |
| N#CCc1cccc2c1CCN=C2c1ccc([N+](=O)[O-])cc1 | 138 to 139 °C |
| CCCCCCC/C=C/C(=O)NCC | 38 to 40 °C |
| CS(=O)(=O)c1ccc(C2=C(c3cccc(F)c3F)CCC2)cc1 | 151 to 152 °C |
| CCC[C@](CCO)(CCc1ccccc1)OCOc1ccc(-c2ccccc2)cc1 | 49 to 53 °C |
| CCCc1nc2c(N)nc3cc(OCc4ccccc4)ccc3c2n1CC(C)C | 206 to 208 °C |
| NC(=O)CCSSCCC(N)=O | 100 to 101 °C |
| COc1ccc(C(O)CCCC(=O)Nc2ccccc2)cc1 (stereo unspecified) | 96 to 96.5 °C |

| SMILES | melting point |
| --- | --- |
| C1=CCN(C(c2ccccc2)c2ccccc2)C1 | 90 to 91 °C |
| O=C(O)COc1ccc(CCC(=O)c2ccc(-c3ccc(C(F)(F)F)cc3)s2)c(Cl)c1Cl | 217 to 219 °C |
| CC(C)(C)OC(=O)N(C(=N)N)C(=O)OC(C)(C)C | 144 to 145 °C |
| COc1cc(I)c(C(C)=O)cc1O | 109 to 111 °C |
| c1ccn(-c2nc(COc3ccc(CCCn4ccnc4)cc3)cs2)c1 | 93 to 94 °C |
| Nc1cc(C(=O)O)ccc1-c1nnc(-c2ccc(C(F)(F)F)cc2)o1 | > 300 °C |
| COc1ccc(S(=O)(=O)Nc2ccccc2Nc2ccncc2)cc1 | 185 to 187 °C |
| COc1cc2c(cc1C(C)=O)CCCC2C (stereo unspecified) | 48 to 50 °C |
| COc1ccc(CN2CCC(c3cn(Cc4ccc(Cl)s4)c4cnccc34)CC2)cc1C(=O)O | 125 to 127 °C |
| COc1cc(-n2cccn2)ccc1-n1cc(OC)c(=O)c(-c2ccnn2-c2cccc(C(F)(F)F)c2)n1 | 215 to 217 °C |
| Cc1c(C(=O)OCc2ccccc2)sc2ccc3[nH]c4c(c3c12)CNCC4 | 178 °C |
| CCOCc1nc2c(N)nc3cccnc3c2n1CC1(O)CCCCC1 | 171 to 173 °C |
| CN1C2CCC1CN(C(=O)c1ccc(-c3ccc(N)cc3)o1)C2 | 190 to 191 °C |
| CCN(CC)CCCN1c2cc(C)c(C)cc2N(C)C(=O)c2c(C)cc(C)nc21 | 104 to 106 °C |
| O=c1c(N2CCNCC2)nc2ccc(F)cc2n1-c1ccccc1 | 142 to 143 °C |
| COc1cc(Nc2nc3cccc(-c4ccc5ncccc5c4)c3o2)cc(OC)c1OC | 187 to 190 °C |
| CCCCc1nc2c(N)nc3ccccc3c2n1CCCCS(=O)(=O)c1ccc(F)cc1F | 190 to 193 °C |
| CC1CC(=O)NN=C1c1ccc2[nH]c(CCCN3C(=O)c4ccccc4C3=O)nc2c1 (stereo unspecified) | 260 to 261 °C |
| O=C1Cc2c(cccc2C(=O)O)Sc2ccc(F)cc21 | 242 to 244 °C |
| Cc1ncoc1C(=O)c1ccccc1 | 84 to 86 °C |
| CCCCCCCCCCCCCCCC(=O)NC(CCCCCCCCCCCCCCC)CC(=O)NCCC(=O)NC(Cc1ccccc1)C(=O)O (stereo unspecified) | 169 to 174 °C |
| CNC(=O)Nc1ccc(O)c(Cl)c1 | 188 to 189 °C |
| CCCc1nc(S)nn1-c1ccccc1 | 142 to 143 °C |
| CCCn1c(=O)c2[nH]cnc2n(CCC)c1=O | 201 to 205 °C |
| NC(=O)Oc1ccccc1-c1nc2cc(F)c(OCc3c(Cl)cccc3Cl)cc2s1 | 245 to 250 °C |
| O=C1CCC2=C1C(c1ccc([N+](=O)[O-])s1)C1=C(CCS1)N2 (stereo unspecified) | 251 to 254 °C |

| SMILES | melting point |
| --- | --- |
| CC(=O)Nc1ccc2c(c1)OCC2 | 115 to 118 °C |
| COc1cc(OC)c2c(C)c(CCN3CCN(c4ccccc4O)CC3)c(=O)oc2c1 | 164 to 165 °C |
| N#Cc1ccc(CN(c2ccc(O)cc2)n2ccnc2)cc1 | 150 °C |
| COC(=O)N(Cc1ccccc1)[C@H]1CC[C@H](c2ccc(O)cc2)CC1 | 61 to 66 °C |
| Cn1nc(-c2ccccc2SCc2ccccc2)oc1=O | 137 to 140 °C |
| CCCCCCCCCCCCCCOCC(CI)(CI)COCCCCCCCCCCCCCC | 27 to 28 °C |
| COc1ccc(CS[C@H]2C[C@@H](C(=O)O)N(C(=O)OCc3ccc([N+](=O)[O-])cc3)C2)cc1 | 96 to 98 °C |
| CCOC(=O)/C=C/c1c(-c2ccccc2)c2cc(C)c(C)cc2c(=O)n1C | 143 to 145 °C |
| COc1ccc(C2(O)OC(=O)C(c3cc(OC)c4c(c3)OCO4)=C2CC2CCCC2)cc1C (stereo unspecified) | 144 to 145 °C |
| O=C(Nc1cccnc1)N1CCc2cc(I)ccc21 | 210 to 215 °C |
| Oc1ccc(C=C(Cl)Cl)cc1 | 90 to 91 °C |
| COC(=O)c1ccc(OCCNC(=O)C2Cc3ccccc3N2S(=O)(=O)c2ccc(-c3cc(C(F)(F)F)ccc3Cl)cc2)cc1Cl (stereo unspecified) | 70 to 76 °C |
| Nc1ccc(C(=O)NCC(=O)O)c(F)c1 | 190 to 194 °C |
| CC(C)(C)c1nn(-c2ccc([N+](=O)[O-])cc2Cl)c(=O)o1 | 98 °C |
| CCOC(=O)C=C(C)C=CC=C(C)C=Cc1c(Cl)cc(OC)c(Cl)c1Cl | 126 to 128 °C |
| O=C(c1cccnc1)N1CCN=C1Nc1c(Cl)cccc1Cl | 173 to 174 °C |
| COc1cc(CC(C#N)C(OC)OC)cc(OC)c1Cl (stereo unspecified) | 84 °C |
| Cc1ccc(-c2coc3c(C)c(O)ccc3c2=O)cc1 | 264 to 267 °C |
| O=C(Nc1ccc2cc(CN3CCCC3)cnc2c1F)c1ccc(-c2ccccc2)cc1 | 186 to 188 °C |
| CN1C(=O)CCC2(C)c3ccc(Sc4ccccc4Cl)cc3CCC12 (single isomer, unassigned; (+)) | 123 to 125 °C |
| CCCC1(CCC)C(=O)N(C(C)(C)C)CC(C)(C)N1OC(C)(C)C#N | 85 to 87 °C |
| COC(=O)C(C)(C)c1ccc(C(=O)Nc2cn3cc(-c4cn[nH]c4)ccc3n2)cc1 | 248 to 249 °C |
| CC(C)(C)OC(=O)CN1CCN(c2ccnc(C#N)c2)C1=O | 139 to 140 °C |
| CCOC(=O)c1ccc(C(=O)CCc2ccc(S(C)(=O)=O)cc2)cc1 | 118 to 120 °C |
| CS(=O)(=O)c1ccc(-c2cc(C(=O)CCCO)nn2-c2ccc(C(F)(F)F)cc2)cc1 | 60 to 63 °C |
| CCSc1ccc2c(c1)CCN2C(=O)Nc1cccnc1 | 150 to 151 °C |

| SMILES | melting point |
| --- | --- |
| CS(=O)(=O)c1ccc(-c2nn(CCc3ccccc3)cc2-c2ccc(F)cc2)cc1 | 170 to 171 °C |
| CCC(=Nc1ccc2c(c1)C(=O)c1ccc(N=C(CC)N3CCOCC3)cc1C2=O)N1CCOCC1 | 220 to 223 °C |
| COc1cc2ccc3c4cc(OCc5ccccc5)c(OC)cc4nnc3c2cc1OC | 244 to 246 °C |
| Cc1cc2c(s1)Nc1ccccc1N=C2N1CCN[C@@H](COc2ccccc2)C1 | 64 to 81 °C |
| Nc1nc(N)nc(-c2ccc(-c3ccccc3)s2)n1 | > 250 °C |
| O=C1NC(=O)C(Cc2ccc3c(c2)CCCN3Cc2ccccc2)S1 (stereo unspecified) | 155 to 158 °C |
| Cc1ccc(-n2c(-c3cc(-c4ccccc4)c(N4CCOCC4)s3)nc3ccccc3c2=O)cc1 | 207 to 209 °C |
| CC(C)Nn1nnnc1S | 92 to 95 °C |
| CCOC(=O)Cc1nn(Cc2nc3ccccc3n2C)c(=O)c2ccccc12 | 118 °C |
| C#CCOc1cc(-c2ncnc(C(F)(F)F)c2Cl)c(F)cc1Cl | 112 to 113 °C |
| COc1c2c(c(OC)c(OC)c1OC)CC(CCCCOc1ccc(C(=O)N3CCOCC3)cc1)C2 | 64 to 72 °C |
| COCc1c(S(C)(=O)=O)ccc(C(=O)C2SCCCC2=O)c1C (stereo unspecified) | 152 to 154 °C |
| CCCC(c1ccc(C(=O)Nc2ccccc2)cc1OCc1ccc(Br)cc1)n1ccnc1 (stereo unspecified) | 168 °C |
| O=C1C2C3CCC(C3)C2C(=O)C1[N+](=O)[O-] (stereo unspecified) | 167 °C |
| Cc1cc(CO)cc([N+](=O)[O-])c1 | 56.8 to 57.9 °C |
| Cc1c(F)c(N2CCNCC2)cc2c1c(=O)c(C(=O)O)cn2-c1ccc(F)cc1F | 198 to 200 °C |
| COC(=O)CCn1c(=O)n(CCN2CCN(c3ccc(OC)cc3)CC2)c(=O)c2cscc21 | 151 to 152 °C |
| CC(=O)Nc1cccc(OCc2ccccc2)c1CCOC(C)=O | 118 to 119 °C |
| Cc1ccc2c(NCc3ccc(NC(=O)c4ccc(Br)cc4)cc3)nc(Cl)nc2c1 | 295 to 298 °C |
| COc1ccncc1-c1cncc(OC2SCC(O)C(O)C2O)c1 (stereo unspecified) | 154 °C |
| CC1(C)c2cc(C#N)ccc2OC1Cl (stereo unspecified) | 105 to 106 °C |
| O=C1c2ccccc2C(=O)N1Cc1noc(-c2ncn3c2[C@@H]2CCN2C(=O)c2c(Cl)cccc2-3)n1 | 189 to 192 °C |
| CCc1cnc(NC(=O)C(c2ccccc2)c2ccccc2)o1 | 148 to 149 °C |
